Assay results as given in patent US20260373138A1, “COMPOUNDS WITH ANTIFUNGAL PROPERTIES” (priority 2023, published 2026).

Tested on: A. fumigatus CEA10 reference strain
Assay: Fluconazole potentiator screen: MIC by CLSI microbroth dilution with and without fluconazole
Assay type: cell-based, Aspergillus fumigatus
Conditions: for MIC: Aspergillus fumigatus, read-out: MIC (ug/mL) (−) Fluc; for MIC / MIC (ug/mL) (+) Fluc: 18 h; for MIC (ug/mL) (+) Fluc: with 32 μg/ml fluconazole, normoxia, GMM, 37 °C; for potency / potentiation of fluconazole (in words): structure-activity statements, fluconazole potentiator screen; for loss in potentiating the fluconazole: analogs of MBX-7591

SMILES: O=C(c1ccc(Cl)s1)N1CCC2(CC1)CC(CCOc1ccncc1)CCO2 (stereo not shown) [MBX-8433]
- MIC: 2.53 µg/mL
- MIC (ug/mL) (+) Fluc: 0.84 µg/mL

SMILES: c1csc(CN2CCC3(CC2)CC(CCOc2ccncc2)CCO3)c1 (stereo not shown) [MBX-7955]
- MIC: > 74 µg/mL
- MIC (ug/mL) (+) Fluc: >74 µg/mL

SMILES: Nc1cc(OCc2ccc(CC3CCN(C(=O)c4ccsc4)CC3)cc2)ccn1 [MBX-8226]
- MIC: 20 µg/mL
- MIC (ug/mL) (+) Fluc: 11.00 µg/mL

SMILES: O=C(c1ccsc1)N1CC(Cc2ccc(COc3ccncc3)cc2)C1 [MBX-8305]
- MIC: 9.1 µg/mL
- MIC (ug/mL) (+) Fluc: 4.50 µg/mL

SMILES: O=S(=O)(c1ccc(Cl)s1)N1CCC(Cc2ccc(CN3CCOCC3)cc2)CC1 [MBX-8193]
- MIC: 0.63 µg/mL
- MIC (ug/mL) (+) Fluc: 0.18 µg/mL

SMILES: O=S(=O)(c1ccsc1)N1CCC(Cc2ccc(COc3ccncc3)cc2)CC1 [MBX-7822]
- MIC: > 6 µg/mL
- potency / potentiation of fluconazole (in words): the only linker reasonably tolerated, apart from the amide
- MIC (ug/mL) (+) Fluc: 1.07 µg/mL

SMILES: O=C(c1cncs1)N1CCC(Cc2ccc(COc3ccncc3)cc2)CC1 [MBX-8098]
- MIC: 5.5 µg/mL
- loss in potentiating the fluconazole: more than 4 fold
- MIC (ug/mL) (+) Fluc: 2.50 µg/mL

SMILES: O=C(c1cccnc1)N1CCC(Cc2ccc(COc3ccncc3)cc2)CC1 [MBX-7730]
- MIC: 15 µg/mL
- potency / potentiation of fluconazole (in words): did not result in appreciable increase in potency
- MIC (ug/mL) (+) Fluc: 7.70 µg/mL

SMILES: O=S(=O)(C1CC1)N1CCC2(CC1)CC(CCOc1ccncc1)CCO2 (stereo not shown) [MBX-7911]
- MIC: 76.1 µg/mL
- potency / potentiation of fluconazole (in words): complete loss of activity
- MIC (ug/mL) (+) Fluc: 38.10 µg/mL

SMILES: O=C(c1ccc2sccc2c1)N1CCC(Cc2ccc(COc3ccncc3)cc2)CC1 [MBX-8096]
- MIC: > 22 µg/mL
- MIC (ug/mL) (+) Fluc: >22 µg/mL

SMILES: O=C(c1cccc(O)c1)N1CCC(Cc2ccc(COc3ccncc3)cc2)CC1 [MBX-7801]
- MIC: > 16 µg/mL
- MIC (ug/mL) (+) Fluc: >16 µg/mL

SMILES: O=C(c1ccsc1)N1CCC(Cc2ccc(COc3cnc4scnc4c3)cc2)CC1 [MBX-8219]
- MIC: 2.81 µg/mL
- MIC (ug/mL) (+) Fluc: 2.81 µg/mL

SMILES: O=C(c1ccc(CC2CCN(S(=O)(=O)c3cccc(F)c3)CC2)cc1)N1CCOCC1 [MBX-8188]
- MIC: > 22 µg/mL
- potency / potentiation of fluconazole (in words): not tolerated
- MIC (ug/mL) (+) Fluc: >22 µg/mL

SMILES: O=C(NC1CCN(Cc2ccc(COc3ccncc3)cc2)CC1)c1ccsc1 [MBX-8312]
- MIC: > 20 µg/mL
- MIC (ug/mL) (+) Fluc: >20 µg/mL

SMILES: O=C(c1ccsc1)N1CCC(Cc2ccc(CNc3ccncc3)cc2)CC1 [MBX-8085]
- MIC: > 19 µg/mL
- MIC (ug/mL) (+) Fluc: >19 µg/mL

SMILES: O=S(=O)(c1ccc(C(F)(F)F)cc1)N1CCC(Cc2ccc(CN3CCOCC3)cc2)CC1 [MBX-8224]
- MIC: 1.1 µg/mL
- MIC (ug/mL) (+) Fluc: 0.50 µg/mL

SMILES: O=S(=O)(c1ccccc1F)N1CCC(Cc2ccc(CN3CCOCC3)cc2)CC1 [MBX-8252]
- MIC: 5.4 µg/mL
- MIC (ug/mL) (+) Fluc: 1.07 µg/mL

SMILES: O=C(c1ccsc1)N1CCC(Cc2ccc(COc3ccncn3)cc2)CC1 [MBX-8529]
- MIC: 9.84 µg/mL
- MIC (ug/mL) (+) Fluc: >15 µg/mL

SMILES: O=C(c1ccsc1)N1CC2(CC(CCOc3ccncc3)C2)C1 [MBX-8285]
- MIC: 4.11 µg/mL
- MIC (ug/mL) (+) Fluc: 2.05 µg/mL

SMILES: O=S(=O)(c1cncs1)N1CCC2(CC1)CC(CCOc1ccncc1)CCO2 (stereo not shown) [MBX-7959]
- MIC: 21.2 µg/mL
- MIC (ug/mL) (+) Fluc: 4.20 µg/mL

SMILES: O=S(=O)(N1CCOCC1)N1CCC2(CC1)CC(CCOc1ccncc1)CCO2 (stereo not shown) [MBX-7950]
- MIC: 26.8 µg/mL
- potency / potentiation of fluconazole (in words): complete loss of activity
- MIC (ug/mL) (+) Fluc: 13.40 µg/mL

SMILES: O=S(=O)(c1cscn1)N1CCC2(CC1)CC(CCOc1ccncc1)CCO2 (stereo not shown) [MBX-7960]
- MIC: 42 µg/mL
- MIC (ug/mL) (+) Fluc: 10.60 µg/mL

SMILES: O=C(c1ccsc1)N1CCC(Cc2ccc(Oc3ccncc3)cc2)CC1 [MBX-8025]
- MIC: > 37 µg/mL
- potency / potentiation of fluconazole (in words): not optimal for potentiation of fluconazole
- MIC (ug/mL) (+) Fluc: >37 µg/mL

SMILES: O=S(=O)(c1cccc(Cl)c1)N1CCC2(CC1)CC(CCOc1ccncc1)CCO2 (stereo not shown) [MBX-7872]
- MIC: > 18 µg/mL
- MIC (ug/mL) (+) Fluc: 6.38 µg/mL

SMILES: O=C(c1ccc(Cl)s1)N1CCC(Cc2ccc(COc3ccncc3)cc2)CC1 [MBX-8095]
- MIC: 6.7 µg/mL
- loss in potentiating the fluconazole: more than 4 fold
- MIC (ug/mL) (+) Fluc: 3.80 µg/mL

SMILES: O=C(c1ccsc1)N1CCC(Cc2ccc(CCOc3ccncc3)cc2)CC1 [MBX-8028]
- MIC: 0.4 µg/mL
- MIC (ug/mL) (+) Fluc: 0.60 µg/mL

SMILES: O=S(=O)(c1ccccn1)N1CCC2(CC1)CC(CCOc1ccncc1)CCO2 (stereo not shown) [MBX-7873]
- MIC: > 16 µg/mL
- MIC (ug/mL) (+) Fluc: >16 µg/mL

SMILES: Cc1cnccc1OCc1ccc(CC2CCN(C(=O)c3ccsc3)CC2)cc1 [MBX-8140]
- MIC: > 20 µg/mL
- potency / potentiation of fluconazole (in words): complete loss of activity
- MIC (ug/mL) (+) Fluc: >20 µg/mL

SMILES: O=S(=O)(c1ccsc1)N1CC2(CC(CCOc3ccncc3)C2)C1 [MBX-8306]
- MIC: 9.1 µg/mL
- MIC (ug/mL) (+) Fluc: 4.50 µg/mL

SMILES: O=C(c1ccc(C(F)(F)F)nc1)N1CCC(Cc2ccc(COc3ccncc3)cc2)CC1 [MBX-8089]
- MIC: > 22 µg/mL
- potency / potentiation of fluconazole (in words): did not result in appreciable increase in potency
- MIC (ug/mL) (+) Fluc: >20 µg/mL

SMILES: COc1ccc(C(=O)N2CCC(Cc3ccc(COc4ccncc4)cc3)CC2)cc1 [MBX-7728]
- MIC: 8.3 µg/mL
- MIC (ug/mL) (+) Fluc: 8.30 µg/mL

SMILES: CC(c1ccsc1)N1CCC(Cc2ccc(COc3ccncc3)cc2)CC1 (stereo not shown) [MBX-7821]
- MIC: > 15 µg/mL
- MIC (ug/mL) (+) Fluc: >15 µg/mL

SMILES: O=C(c1ccc(F)cc1)N1CCC(Cc2ccc(COc3ccncc3)cc2)CC1 [MBX-7706]
- MIC: 1.01 µg/mL
- potency / potentiation of fluconazole (in words): antagonistic effect
- MIC (ug/mL) (+) Fluc: 8.09 µg/mL

SMILES: O=S(=O)(c1ccccc1)N1CCC2(CC1)CC(CCOc1ccncc1)CCO2 (stereo not shown) [MBX-7868]
- MIC: 8.33 µg/mL
- MIC (ug/mL) (+) Fluc: 2.08 µg/mL

SMILES: COc1cccc(C(=O)N2CCC(Cc3ccc(COc4ccncc4)cc3)CC2)c1 [MBX-7771]
- MIC: 11.8 µg/mL
- MIC (ug/mL) (+) Fluc: 16.70 µg/mL

SMILES: N#Cc1ccc(OCc2ccc(CC3CCN(C(=O)c4ccsc4)CC3)cc2)cc1 [MBX-8027]
- MIC: > 83 µg/mL
- MIC (ug/mL) (+) Fluc: >83 µg/mL

SMILES: O=C(c1ccc(O)cc1)N1CCC(Cc2ccc(COc3ccncc3)cc2)CC1 [MBX-7802]
- MIC: > 16 µg/mL
- MIC (ug/mL) (+) Fluc: >16 µg/mL

SMILES: O=S(=O)(c1cccs1)N1CCC2(CC1)C[C@@H](CCOc1ccncc1)CCO2 [MBX-8251]
- MIC: 5.28 µg/mL
- MIC (ug/mL) (+) Fluc: 1.32 µg/mL

SMILES: CC(c1ccc(CC2CCN(S(=O)(=O)c3cccc(F)c3)CC2)cc1)N1CCOCC1 (stereo not shown) [MBX-8358]
- MIC: 2.79 µg/mL
- MIC (ug/mL) (+) Fluc: 0.44 µg/mL

SMILES: O=C(c1ccsc1)N1CCC(Cc2ccc(CO)cc2)CC1 [MBX-8192]
- MIC: > 15.8 µg/mL
- MIC (ug/mL) (+) Fluc: >15.8 µg/mL

SMILES: O=S(=O)(NC1CC2(CC(Cc3ccc(CN4CCOCC4)cc3)C2)C1)c1ccc(F)cc1 (stereo not shown) [MBX-8311]
- MIC: 19 µg/mL
- MIC (ug/mL) (+) Fluc: 22.00 µg/mL

SMILES: O=C(c1ccsc1)N1CCC(Cc2ccc(C#Cc3ccncc3)cc2)CC1 [MBX-7963]
- MIC: > 77 µg/mL
- MIC (ug/mL) (+) Fluc: >77 µg/mL

SMILES: O=C(c1cccc(Cl)c1)N1CCC(Cc2ccc(COc3ccncc3)cc2)CC1 [MBX-8092]
- MIC: 21 µg/mL
- MIC (ug/mL) (+) Fluc: >21 µg/mL

SMILES: O=C(c1ccsc1)N1CCC(Cc2ccc(OCc3ccncc3)cc2)CC1 [MBX-8024]
- MIC: 19.6 µg/mL
- potency / potentiation of fluconazole (in words): not optimal for potentiation of fluconazole
- MIC (ug/mL) (+) Fluc: 19.60 µg/mL

SMILES: O=C(N1CCC(Cc2ccc(COc3ccncc3)cc2)CC1)C12CC(C1)C2 [MBX-8090]
- MIC: 18.8 µg/mL
- MIC (ug/mL) (+) Fluc: 13.30 µg/mL

SMILES: Cn1ccc(C(=O)N2CCC(Cc3ccc(COc4ccncc4)cc3)CC2)c1 [MBX-7773]
- MIC: 7.79 µg/mL
- potency / potentiation of fluconazole (in words): antagonistic potentiation effect with the fluconazole
- MIC (ug/mL) (+) Fluc: 15.60 µg/mL

SMILES: COc1c(F)cccc1S(=O)(=O)N1CCC2(CC1)CC(CCOc1ccncc1)CCO2 (stereo not shown) [MBX-7958]
- MIC: > 92 µg/mL
- MIC (ug/mL) (+) Fluc: >92 µg/mL

SMILES: O=S(=O)(c1cccc(Cl)c1)N1CCC(Cc2ccc(CN3CCOCC3)cc2)CC1 [MBX-8187]
- MIC: 4.45 µg/mL
- MIC (ug/mL) (+) Fluc: 2.50 µg/mL

SMILES: O=C(c1ccsc1)N1CCC(Cc2ccc(CN3CCOCC3)cc2)C1 (stereo not shown) [MBX-8429]
- MIC: 18.5 µg/mL
- MIC (ug/mL) (+) Fluc: 18.53 µg/mL

SMILES: O=S(=O)(c1cccs1)N1CCC2(CC1)C[C@H](CCOc1ccncc1)CCO2 [MBX-8250]
- MIC: 2.64 µg/mL
- MIC (ug/mL) (+) Fluc: 0.52 µg/mL

SMILES: O=S(=O)(c1ccc(F)cc1)N1CCC(Oc2ccc(CN3CCOCC3)cc2)CC1 [MBX-8282]
- MIC: 5.43 µg/mL
- MIC (ug/mL) (+) Fluc: 1.36 µg/mL
